Laboratory results taken from the METLIN SMRT retention time set (Domingo-Almenara et al. 2019).

Assay: gradient 5% acetonitrile 3 min, to 50% in 2 min, to 85% in 15 min, held 3 min, 100 µL/min
Details: column: Zorbax Extend-C18 2.1 x 50 mm; eluents: water / acetonitrile, 0.1% formic acid
Procedure, shortened: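 Over 3 months, pure standards in mixtures of ~100 molecules were run by HPLC coupled to a quadrupole time-of-flight mass spectrometer in positive and negative ionization mode. The column was a Zorbax Extend-C18 (2.1 × 50 mm, 1.8 μm) at 100 μL/min, eluted with water and acetonitrile each holding 0.1% formic acid, with 40 μL dead and 900 μL dwell volumes. Retention time was determined from adduct peaks chosen by software and checked manually.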

RP-LC retention time	Compound
646 s	Cc1c(Cl)ccc2c(=O)c3c([nH]c12)CCN(CC(=O)Nc1ccc(Cl)c(F)c1)C3
726 s	COc1cccc(N2CCN(C(=O)CN3CCN(Cc4ccccc4)C(=O)C3=O)CC2)c1
879 s	COC(=O)c1ccc(NC(=O)N2CC(C)Oc3ccccc32)cc1 (configuration not stated)
1020 s	COc1ccccc1NC(=O)C1CCN(S(=O)(=O)c2cc(-c3noc(C4CC4)n3)cs2)CC1
691 s	Cc1cc2n(n1)CCC(=O)N2CCCC(=O)NCCCc1ccccc1
802 s	Cc1ccc(-c2[nH]ncc2CNS(=O)(=O)c2cccc3nsnc23)cc1C
707 s	COc1cc(OC)cc(C(=O)N2CCC3(C2)C(=O)Nc2ccccc23)c1 (configuration not stated)
670 s	CCn1cc(-c2ccccc2)cc1C(=O)NCCN1CCCC1
795 s	CCc1ccc(CNC(=O)C2CCCN(c3nnc(C)c4c(C)n(-c5ccccc5)nc34)C2)cc1 (configuration not stated)
935 s	O=C(Oc1ccc(NC2=NS(=O)(=O)c3ccccc32)cc1)c1ccccc1
769 s	O=C(Nc1cccc(-c2nnc3n2CCCC3)c1)c1nccc2ccccc12
996 s	COc1ccccc1-c1noc(C2CCCN2C(=O)c2ccc(C)s2)n1 (configuration not stated)
938 s	Cc1cnn(Cc2nc(-c3ccc(NC(=O)c4sccc4C)cc3)oc2C)c1
871 s	COc1ccc(NC(=O)N2CCCC2c2nc(-c3ccccc3OC)no2)c(OC)c1 (configuration not stated)
1150 s	C/C(=C\C(=O)Nc1ccccc1C(=O)O)c1ccc2ccccc2c1
774 s	CCOc1cc(-c2ccc(F)cc2)nc2ccc(NC(=O)C3CCC3)cc12

RP-LC retention time	Compound
1180 s	NC(=O)c1cc(-c2ccccc2)sc1NC(=O)c1cc(Cl)sc1Cl
662 s	CCOC(=O)c1ccc(NC(=O)Cn2cnc3cc4c(cc32)OCCO4)cc1
1070 s	CCCn1c(=O)c(C)nc2cc(-c3noc(COc4ccccc4)n3)ccc21
1050 s	COc1cccc(-c2nnc(Cc3nc(-c4cccc(C)c4)no3)o2)c1
620 s	CC(Oc1ccc(-c2cnc3ccccc3n2)cc1)C(=O)N(C)Cc1ccco1 (configuration not stated)
905 s	O=C1CC(c2ccc3c(c2)OCO3)c2scc(S(=O)(=O)c3ccccc3)c2N1 (configuration not stated)
794 s	CCCNC(=O)CCc1nc2ccccc2n(CC(=O)NCc2ccccc2Cl)c1=O
570 s	O=C(CCCn1nnc2ccccc2c1=O)Nc1nc2ccccc2[nH]1
916 s	COC(=O)c1nnn(-c2ccc(C)c(C)c2)c1C(=O)OC
1030 s	Cc1ccccc1OCC(=O)Nc1ccc2c(c1)N(S(=O)(=O)c1ccccc1)CCC2
1170 s	O=C(CCSc1ccc(Cl)cc1)Nc1nc(-c2ccccc2)cs1
691 s	COc1cccc(C(O)CN2CCN(c3ccccc3C)CC2)c1 (configuration not stated)
966 s	CCc1cccc(NC(=O)Cn2c(=O)n(-c3cccc(C)c3)c(=O)c3c2cc(C)n3C)c1
855 s	COc1ccc2ncc(S(=O)(=O)c3ccccc3)c(Nc3ccc4c(c3)OCCO4)c2c1
910 s	CCCNC(=O)c1cc(-c2ccccc2)cn1C
776 s	O=C(c1cccc(Cl)c1)N1CCC(n2c(-c3ccco3)nc3cccnc32)C1 (configuration not stated)

Continued, compound first:

Compound	RP-LC retention time
COc1ccc(-c2cc3n(n2)CCCN(C(=O)C2CCOC2)C3)cc1 (configuration not stated)	703 s
Cn1cncc1C(=O)N1CC(F)(F)C[C@H]1c1nc(C2CC2)no1	620 s
O=C(NC1CCN(C(=O)C2CC2)C1)C1CCC1 (configuration not stated)	606 s
Cc1ccc(C)c(N2CCN(C(=O)C3CCN(S(=O)(=O)c4cn(C)c(C)n4)CC3)CC2)c1	822 s
Cc1nc(C)c(C(=O)N2CCC(Oc3nc4c(C)ccc(C)c4s3)CC2)s1	1090 s
COC(=O)CCSCC(=O)Nc1nnc(C)s1	602 s
O=C(Cn1cnc2nc(N3CCC(C(=O)NC4CC4)CC3)sc2c1=O)Nc1ccc(F)c(F)c1	705 s
O=C1CCCc2cc(S(=O)(=O)N3CCCN(Cc4ccccc4Cl)C3)ccc2N1	750 s
Cc1ccc(NC(=O)N2CCC(n3cnc4cccnc43)CC2)cc1F	682 s
CCn1cnc(S(=O)(=O)N2CCCC(C(=O)Nc3ccc(C)c(C)c3)C2)c1 (configuration not stated)	800 s
CCCCN1CCN(S(=O)(=O)c2cc(-c3nnc(CC)o3)co2)CC1	608 s
Cc1ccc(-n2c(N3CCCC(C(=O)NCc4ccc(Cl)cc4)C3)nc3ccsc3c2=O)cc1 (configuration not stated)	956 s
CCn1c(=O)oc2cc(S(=O)(=O)N3CCN(C(=O)c4ccnn4C)CC3)ccc21	687 s
Cc1ccc(-c2nnc(Cc3nc(-c4ccc(F)cc4)no3)o2)cc1C	1120 s
CCCNc1cc(N2CCC(CCC(=O)NC(CC)CC)CC2)ncn1	656 s
CCCCN(C)C(=O)c1cc2c(s1)N(CC)CCCC2	1100 s
O=C(NCc1csc(C2CCN(C(=O)c3ccc(F)c(F)c3)CC2)n1)C1CC1	705 s
CCN1CCN(c2ncc(N3CCC(C(=O)NCCN4CCCCC4C)CC3)cn2)CC1 (configuration not stated)	537 s

Compound	RP-LC retention time
COc1ccc(CNS(=O)(=O)c2cc3n(c2)CCN(C(C)C)C3=O)cc1	712 s
Cc1ccc(C(=O)N2CCC(n3c(-c4ccco4)nc4cccnc43)C2)cc1C (configuration not stated)	806 s
CCn1cnc2ccc(-c3noc(-c4cc(OC)cc(OC)c4)n3)cc21	797 s
CC(C(=O)NCCCN1CCCCC1)n1ccc2cc(S(=O)(=O)N3CCCCCC3)ccc21 (configuration not stated)	707 s
Cc1nc(C(=O)Nc2ccc(F)cc2)c(C)o1	848 s
COCc1nnc(-c2ccc(F)cc2)o1	740 s
Cn1c(C2CCN(C(=O)Nc3ccc(Br)cc3F)CC2)cc(=O)n2nccc12	694 s
CCOC(=O)N1CCN(C(=O)C2CCN(c3ncnc4c3oc3ccccc34)CC2)CC1	673 s
Cn1c(=O)n(CCN2CCCCC2)c(=O)c2c1nc1n2CCCN1C1CCCCC1	681 s
CCNC(=O)c1n[nH]c2c1CCCC2	641 s
CC(C)(C)c1noc(-c2ccc(-n3cnc(C(=O)NCc4ccc(F)cc4)c3)nc2)n1	1330 s
Cc1ccc(N2CCN(C(=O)c3nnc(-c4ccc(S(=O)(=O)N5CCCC5)cc4)o3)CC2)c(C)c1	1190 s
CCC(c1cccs1)N1C(=O)[C@H]2CN(S(=O)(=O)c3ccc(F)cc3)C[C@H]2C1=O (some centres not stated)	979 s
CCn1c(=O)c(N2CCN(S(=O)(=O)c3ccc(Cl)s3)CC2)nc2ccncc21	739 s
COc1ccc2[nH]c(=O)c(CCC(=O)NCCN3CCCCCC3)cc2c1	600 s
CCn1ncc2ccc(C(=O)NC(C)C)cc21	702 s
Cc1nn(C)c(C)c1S(=O)(=O)N1CCC2(CC1)C(=O)N(C(C)C)C2c1ccccc1 (configuration not stated)	837 s
